# Reference: patent US10071082B2, “Antimicrobial agents” (Rutgers, The State University of New Jersey, priority 2013, dated 2018)
# Assays:
# [1] = test system: S. aureus ATCC 43300 (MRSA); assay: Test D in vivo efficacy, mouse peritonitis model of systemic infection; settings: mice, p.o.
# MSSA = assay: Test A antibacterial assay, broth microdilution MIC; format: cell-based; settings: Staphylococcus aureus, read-out: MIC MSSA
# Procedure: (§1) Antibacterial activity can be determined as per Clinical and Laboratory Standards Institute (CLSI) guidelines using a broth microdilution assay in which log-phase bacteria are grown at 37° C. in appropriate medium containing two-fold serial dilutions of a compound to yield final concentrations ranging from 256 to 0.06 μg/mL. For determination of minimal inhibitory concentration (MIC) values, bacterial growth is monitored after 24 to 48 hours by measuring optical density at 600 nm.
# MRSA = assay: as above; format: cell-based; settings: Staphylococcus aureus, read-out: MIC MRSA
# Procedure: as §1
# [2] = test system: S. aureus ATCC 19636 (MSSA); assay: Test D in vivo efficacy, mouse peritonitis model of systemic infection; settings: mice
structure (smiles),measurement,setting,value
CN1CCC(C(=O)NC(=O)c2c(F)ccc(OCc3nc4cc(Cl)cnc4s3)c2F)CC1 [Example 17],Survival (%),"[1]; 3x, total dose 2.4 mg/mouse, first dose 5 minutes prior to infection, 24 Hrs",66.7%
same,Survival (%),"[1]; 3x, total dose 2.4 mg/mouse, first dose 5 minutes prior to infection, 48 Hrs",16.7%
same,Survival (%),"[1]; 3x, total dose 2.4 mg/mouse, first dose 5 minutes prior to infection, 72 Hrs",16.7%
same,Survival (%),"[1]; 6x, total dose 4.8 mg/mouse, 24 Hrs",83.3%
same,Survival (%),"[1]; 6x, total dose 4.8 mg/mouse, 48 Hrs",50%
same,Survival (%),"[1]; 6x, total dose 4.8 mg/mouse, 72 Hrs",50%
same,Survival (%),"[1]; 6x, total dose 4.8 mg/mouse, first dose 5 minutes prior to infection, 24 Hrs",100%
same,Survival (%),"[1]; 6x, total dose 4.8 mg/mouse, first dose 5 minutes prior to infection, 48 Hrs",100%
same,Survival (%),"[1]; 6x, total dose 4.8 mg/mouse, first dose 5 minutes prior to infection, 72 Hrs",100%
same,Survival (%),"[1]; 6x, total dose 4.8 mg/mouse, first dose 10 minutes post-infection, 24 Hrs",100%
same,Survival (%),"[1]; 6x, total dose 4.8 mg/mouse, first dose 10 minutes post-infection, 48 Hrs",100%
same,Survival (%),"[1]; 6x, total dose 4.8 mg/mouse, first dose 10 minutes post-infection, 72 Hrs",100%
same,MIC,MSSA,2 µg/mL
same,MIC,MRSA,4 µg/mL
same,Survival (%),"[2]; i.v., 1x, total dose 0.6 mg/mouse, first dose immediately prior to infection, 24 Hrs",0%
same,Survival (%),"[2]; i.v., 1x, total dose 0.6 mg/mouse, first dose immediately prior to infection, 48 Hrs",0%
same,Survival (%),"[2]; i.v., 1x, total dose 0.6 mg/mouse, first dose immediately prior to infection, 72 Hrs",0%
same,Survival (%),"[2]; i.v., 2x, total dose 1.2 mg/mouse, first dose immediately prior to infection, 24 Hrs",0%
same,Survival (%),"[2]; i.v., 2x, total dose 1.2 mg/mouse, first dose immediately prior to infection, 48 Hrs",0%
same,Survival (%),"[2]; i.v., 2x, total dose 1.2 mg/mouse, first dose immediately prior to infection, 72 Hrs",0%
same,Survival (%),"[2]; i.v., 3x, total dose 1.8 mg/mouse, first dose immediately prior to infection, 24 Hrs",33.3%
same,Survival (%),"[2]; i.v., 3x, total dose 1.8 mg/mouse, first dose immediately prior to infection, 48 Hrs",33.3%
same,Survival (%),"[2]; i.v., 3x, total dose 1.8 mg/mouse, first dose immediately prior to infection, 72 Hrs",33.3%
same,Survival (%),"[2]; i.v., 4x, total dose 2.4 mg/mouse, first dose immediately prior to infection, 24 Hrs",83.3%
same,Survival (%),"[2]; i.v., 4x, total dose 2.4 mg/mouse, first dose immediately prior to infection, 48 Hrs",83.3%
same,Survival (%),"[2]; i.v., 4x, total dose 2.4 mg/mouse, first dose immediately prior to infection, 72 Hrs",83.3%
same,Survival (%),"[2]; p.o., 1x, total dose 0.8 mg/mouse, first dose 5 minutes prior to infection, 24 Hrs",0%
same,Survival (%),"[2]; p.o., 1x, total dose 0.8 mg/mouse, first dose 5 minutes prior to infection, 48 Hrs",0%
same,Survival (%),"[2]; p.o., 1x, total dose 0.8 mg/mouse, first dose 5 minutes prior to infection, 72 Hrs",0%
same,Survival (%),"[2]; p.o., 2x, total dose 1.6 mg/mouse, first dose 5 minutes prior to infection, 24 Hrs",0%
same,Survival (%),"[2]; p.o., 2x, total dose 1.6 mg/mouse, first dose 5 minutes prior to infection, 48 Hrs",0%
same,Survival (%),"[2]; p.o., 2x, total dose 1.6 mg/mouse, first dose 5 minutes prior to infection, 72 Hrs",0%
same,Survival (%),"[2]; p.o., 4x, total dose 3.2 mg/mouse, 24 Hrs",83.3%
same,Survival (%),"[2]; p.o., 4x, total dose 3.2 mg/mouse, 48 Hrs",83.3%
same,Survival (%),"[2]; p.o., 4x, total dose 3.2 mg/mouse, 72 Hrs",83.3%
same,Survival (%),"[2]; p.o., 4x, total dose 3.2 mg/mouse, first dose 5 minutes prior to infection, 24 Hrs",100%
same,Survival (%),"[2]; p.o., 4x, total dose 3.2 mg/mouse, first dose 5 minutes prior to infection, 48 Hrs",100%
same,Survival (%),"[2]; p.o., 4x, total dose 3.2 mg/mouse, first dose 5 minutes prior to infection, 72 Hrs",100%
CN1CCC(C(=O)NC(=O)c2c(F)ccc(OCc3nc4cc(C(F)(F)F)cnc4s3)c2F)CC1 [Example 44],MIC,MSSA,0.5 µg/mL
same,MIC,MRSA,2 µg/mL
same,Survival (%),"[2]; i.v., 1x, total dose 0.9 mg/mouse, 24 Hrs",83.3%
same,Survival (%),"[2]; i.v., 1x, total dose 0.9 mg/mouse, 48 Hrs",83.3%
same,Survival (%),"[2]; i.v., 1x, total dose 0.9 mg/mouse, 72 Hrs",83.3%
same,Survival (%),"[2]; i.v., 2x, total dose 1.8 mg/mouse, 24 Hrs",100%
same,Survival (%),"[2]; i.v., 2x, total dose 1.8 mg/mouse, 48 Hrs",100%
same,Survival (%),"[2]; i.v., 2x, total dose 1.8 mg/mouse, 72 Hrs",100%
same,Survival (%),"[2]; p.o., 1x, total dose 0.8 mg/mouse, 24 Hrs",50%
same,Survival (%),"[2]; p.o., 1x, total dose 0.8 mg/mouse, 48 Hrs",50%
same,Survival (%),"[2]; p.o., 1x, total dose 0.8 mg/mouse, 72 Hrs",50%
same,Survival (%),"[2]; p.o., 2x, total dose 1.6 mg/mouse, 24 Hrs",100%
same,Survival (%),"[2]; p.o., 2x, total dose 1.6 mg/mouse, 48 Hrs",100%
same,Survival (%),"[2]; p.o., 2x, total dose 1.6 mg/mouse, 72 Hrs",100%
same,Survival (%),"[2]; p.o., 3x, total dose 2.4 mg/mouse, 24 Hrs",100%
same,Survival (%),"[2]; p.o., 3x, total dose 2.4 mg/mouse, 48 Hrs",100%
same,Survival (%),"[2]; p.o., 3x, total dose 2.4 mg/mouse, 72 Hrs",100%
same,Survival (%),"[2]; p.o., 4x, total dose 3.2 mg/mouse, n/group 4, 24 Hrs",100%
same,Survival (%),"[2]; p.o., 4x, total dose 3.2 mg/mouse, n/group 4, 48 Hrs",100%
same,Survival (%),"[2]; p.o., 4x, total dose 3.2 mg/mouse, n/group 4, 72 Hrs",100%
